pIC50: −log10 of the molar value. Starred links: 1 amine or outer side, 2 acyl side, 3 side chain; linkers in the order of their positions; H or OH if unused. Positions of bridges follow the written chain, without caps; N, C: chain ends. Non-standard residues stand in square brackets, D forms with d. Residues, ends and D or L forms follow the SMILES beside them. Groups on a side chain read outwards from the residue. Phe(4-OC2H4NH2,2,3-(CH2)3) = NCCOc1ccc(C[C@H](N)C(=O)O)c2c1CCC2; Trp(7-cPr) = N[C@@H](Cc1c[nH]c2c(C3CC3)cccc12)C(=O)O; NH(CH2CH2O)4CH2CO = O=C(COCCOCCOCCOCCN[*:1])[*:2]; Trp(7-Me) = Cc1cccc2c(C[C@H](N)C(=O)O)c[nH]c12; γGlu = O=C(O)[C@H](CCC(=O)[*:2])N[*:1]; 2Nal = N[C@@H](Cc1ccc2ccccc2c1)C(=O)O; X1 = O=C(C(N[*:1])C1(S[*:3])CC1)[*:2]; Thp(SO2) = NC1(C(=O)O)CCS(=O)(=O)CC1; AEF = NCCOc1ccc(C[C@H](N)C(=O)O)cc1; Adipoyl = O=C(CCCCC(=O)[*:2])[*:1]; 3Pal = N[C@@H](Cc1cccnc1)C(=O)O; Pen = CC(C)(S)[C@H](N)C(=O)O; AEEA = NCCOCCOCC(=O)O; Sar = CNCC(=O)O
What follows are compounds tested against T1, IL-23α/IL-12β and IL-23R (Homo sapiens, UniProt Q5VWK5) (assay: IL-23α/IL-12β and IL-23R binding assay (TR-FRET/HTRF)). Conditions: inhibition of the binding of IL-23α/IL-12β to IL-23R, TR-FRET; both proteins 0.3 nM.
T1 construct: purchased ACRO ILR-H82F3 (IL-23R); ILB-H52W5 (IL-23α/IL-12β)
T1 sequence (Q5VWK5 24-353 limits assumed): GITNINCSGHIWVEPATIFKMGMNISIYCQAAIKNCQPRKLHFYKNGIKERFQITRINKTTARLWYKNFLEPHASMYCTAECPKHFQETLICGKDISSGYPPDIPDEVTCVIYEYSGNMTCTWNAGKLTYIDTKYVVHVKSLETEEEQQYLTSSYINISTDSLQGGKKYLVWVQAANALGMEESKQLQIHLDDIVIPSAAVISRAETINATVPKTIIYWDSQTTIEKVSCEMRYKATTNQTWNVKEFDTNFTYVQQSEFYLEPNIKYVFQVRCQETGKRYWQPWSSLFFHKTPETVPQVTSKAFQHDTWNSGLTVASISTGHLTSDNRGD
Protocol: 1. IL-23α/IL-12β and IL-23R binding assay
Compounds were tested for their inhibition on the binding of IL-23α/IL-12β to IL-23R by the TR-FRET method. Solutions of proteins IL-23α/IL-12β (ACRO, Cat# ILB-H52W5) and IL-23R (ACRO, Cat# ILR-H82F3) were prepared in reaction buffer PPI (PerkinElmer, Cat# 61DB10RDF). The final concentrations of IL-23α/IL-12β and IL-23R in the reaction mixture were both 0.3 nM. Positive reference Guselkumab was 3-fold diluted from an initial concentration of 30 nM, with 10 doses. 0.1 µL of the positive reference diluted in the reaction buffer was delivered to a 384-well plate (Grenier, Cat# 784075) by the acoustic liquid delivery technique (Echo 655), and the plate was centrifuged at 1000 rpm for 1 minute. 2.5 µL of IL-23α/IL-12β solution was transferred into the 384-well reaction plate, and the plate was centrifuged at 1000 rpm for 1 minute, and incubated at 25°C for 60 minutes. 2.5 µL of IL-23R solution was transferred into the 384-well reaction plate, and the plate was centrifuged at 1000 rpm for 1 minute. 5 µL of Streptavidin-Tb cryptate and Anti 6HIS-d2 detection mixture was transferred into the 384-well reaction plate, and the plate was centrifuged at 1000 rpm for 1 minute, and incubated at 25°C for 60 minutes. Finally, the HTRF signal (Ratio 665/620 nm) was read with a BMG high-throughput drug screening multifunctional microplate reader. IC50 values were obtained by nonlinear regression curve fitting using GraphPad Prism software.
In the case of `C[C@@H](O)[C@@H]1NC(=O)[C@H](Cc2c[nH]cn2)NC(=O)[C@@H](NC(=O)COCCOCCNC(=O)COCCOCCNC(=O)CC[C@H](NC(=O)CCCCC(=O)O)C(=O)O)C(C)(C)SSC(C)(C)[C@@H](C(=O)N[C@@H](Cc2ccc(OCCN)c3c2CCC3)C(=O)N[C@@H](Cc2ccc3ccccc3c2)C(=O)NC2(C(=O)N[C@@H](CCC(=O)O)C(=O)N[C@@H](CC(N)=O)C(=O)N[C@@H](Cc3cccnc3)C(=O)N(C)CC(N)=O)CCS(=O)(=O)CC2)NC(=O)[C@H](CCC(N)=O)NC(=O)[C@H](Cc2c[nH]c3c(C4CC4)cccc23)NC1=O` [Compound 48] ({Adipoyl-γGlu-AEEA-AEEA}-[Pen]HT[Trp(7-cPr)]Q[Pen][Phe(4-OC2H4NH2,2,3-(CH2)3)][2Nal][Thp(SO2)]EN[3Pal][Sar]-NH2; disulfide 1-6), the pIC50 was 10.24.
With `CC(=O)N[C@@H]1C(=O)N[C@@H](Cc2c[nH]cn2)C(=O)N[C@@H]([C@@H](C)O)C(=O)N[C@@H](Cc2c[nH]c3c(C4CC4)cccc23)C(=O)N[C@@H](CCCCNC(=O)COCCOCCNC(=O)COCCOCCNC(=O)CC[C@H](NC(=O)CCCCC(=O)O)C(=O)O)C(=O)N[C@H](C(=O)N[C@@H](Cc2ccc(OCCN)c3c2CCC3)C(=O)N[C@@H](Cc2ccc3ccccc3c2)C(=O)NC2(C(=O)N[C@@H](CCC(=O)O)C(=O)N[C@@H](CC(N)=O)C(=O)N[C@@H](Cc3cccnc3)C(=O)N(C)CC(N)=O)CCS(=O)(=O)CC2)C(C)(C)SSC1(C)C` [Compound 49] (Ac-[Pen]HT[Trp(7-cPr)]K([AEEA-AEEA-γGlu-Adipoyl])[Pen][Phe(4-OC2H4NH2,2,3-(CH2)3)][2Nal][Thp(SO2)]EN[3Pal][Sar]-NH2; disulfide 1-6) the pIC50 was 10.17.
`CC(=O)NCCCC[C@@H]1NC(=O)[C@H](Cc2c[nH]c3c(C)cccc23)NC(=O)[C@H]([C@@H](C)O)NC(=O)[C@H](Cc2c[nH]cn2)NC(=O)[C@@H](NC(C)=O)CCCC[C@@H](C(=O)N[C@@H](Cc2ccc(OCCN)c3c2CCC3)C(=O)N[C@@H](Cc2ccc3ccccc3c2)C(=O)NC2(C(=O)N[C@@H](CCC(=O)O)C(=O)N[C@@H](CC(N)=O)C(=O)N[C@@H](Cc3cccnc3)C(=O)N(C)CC(N)=O)CCOCC2)NC1=O` [Compound 52] was tested, and the pIC50 was 10.00.
`Cc1cccc2c(C[C@@H]3NC(=O)[C@H]([C@@H](C)O)NC(=O)[C@H](Cc4c[nH]cn4)NC(=O)C4NC(=O)COCCOCCOCCOCCNC(=O)CC[C@@H](C(=O)N[C@@H](CC(N)=O)C(=O)N[C@@H](Cc5cccnc5)C(=O)N(C)CC(N)=O)NC(=O)C5(CCS(=O)(=O)CC5)NC(=O)[C@H](Cc5ccc6ccccc6c5)NC(=O)[C@H](Cc5ccc(OCCN)cc5)NC(=O)[C@@H](NC(=O)[C@H](CCC(N)=O)NC3=O)C(C)(C)SSC43CC3)c[nH]c12` [Compound 53] ([NH(CH2CH2O)4CH2CO][X1]HT[Trp(7-Me)]Q[Pen][AEF][2Nal][Thp(SO2)]EN[3Pal][Sar]-NH2; disulfide 2-7; lactam N-11) was tested, and the pIC50 was 10.19.
Work on `CC(=O)NC1C(=O)N[C@@H](Cc2c[nH]cn2)C(=O)N[C@@H]([C@@H](C)O)C(=O)N[C@@H](Cc2c[nH]c3c(C4CC4)cccc23)C(=O)N[C@@H](CCC(N)=O)C(=O)NC(C(=O)N[C@@H](Cc2ccc(OCCN)c3c2CCC3)C(=O)N[C@@H](Cc2ccc3ccccc3c2)C(=O)NC2(C(=O)N[C@@H](CCC(=O)O)C(=O)N[C@@H](CC(N)=O)C(=O)N[C@@H](Cc3cccnc3)C(=O)N(C)CC(N)=O)CCS(=O)(=O)CC2)C2(CC2)SSC12CC2` (stereo partly drawn) [Compound 54] (Ac-[X1]HT[Trp(7-cPr)]Q[X1][Phe(4-OC2H4NH2,2,3-(CH2)3)][2Nal][Thp(SO2)]EN[3Pal][Sar]-NH2; disulfide 1-6) yielded a pIC50 of 10.04.
`CC(=O)NC1C(=O)N[C@@H](Cc2c[nH]cn2)C(=O)N[C@@H]([C@@H](C)O)C(=O)N[C@@H](Cc2c[nH]c3c(C)cccc23)C(=O)N[C@@H](CCC(N)=O)C(=O)NC(C(=O)N[C@@H](Cc2ccc(OCCN)c3c2CCC3)C(=O)N[C@@H](Cc2ccc3ccccc3c2)C(=O)NC2(C(=O)N[C@@H](CCC(=O)O)C(=O)N[C@@H](CC(N)=O)C(=O)N[C@@H](Cc3cccnc3)C(=O)N(C)CC(N)=O)CCS(=O)(=O)CC2)C2(CC2)SSC12CC2` (stereo partly drawn) [Compound 55] (Ac-[X1]HT[Trp(7-Me)]Q[X1][Phe(4-OC2H4NH2,2,3-(CH2)3)][2Nal][Thp(SO2)]EN[3Pal][Sar]-NH2; disulfide 1-6) gave a pIC50 of 10.17.
